For data set [1] the following is noted: intradermal delivery; literature; cited from earlier work.
Data set [2] in a line: clinical. Further details: species or system humans. Conditions: in vivo; for bioavailability: F (bioavailability). How it is done: (§1) Osterode et al. published plasma concentration data for humans injected with ANP by either SQ or IV bolus. FIG. 5 presents the IV bolus data (FIG. 5A) and SQ bolus data (FIG. 5B) from the Osterode et al. with selected points digitized shown by open circles.
(§2) The digitized data points from FIG. 5A and FIG. 5B were baseline-corrected and analyzed using a commercial pharmacokinetic analysis software package (Phoenix v6.2, Pharsight, Cary, N.C.). Non-compartmental analysis (NCA) was performed first, followed by compartmental modeling. Bioavailability for administration into the SQ space (F) was estimated by dividing the area-under-the-curve (AUC) for the SQ bolus (FIG. 5B) by the AUC IV bolus (FIG. 5A), which was assumed to have 100% bioavailability. The slope of the terminal phase (λZ) for the IV and SQ data from FIG. 5 was estimated using linear regression. The estimate for λZ was converted to a half-life (t1/2) using Equation 1.
Similarly, the one-compartmental model for SQ bolus injection can be modeled by Equations 4 and 5, where Aa is the amount of drug in the injection site (pmol), ka is the absorption rate constant (1/min), and F is the bioavailability as a unitless decimal. The initial estimates for primary model parameters ke and V/F were taken from the results of the NCA analysis of the IV data (ke=λZ) from the IV bolus data in FIG. 5A from Osterode et al. The initial estimate for the primary model parameter ka was taken from the results of the NCA analysis of the SQ data (ka=λZ) from the SQ bolus data in FIG. 5B. Clearance (CL) and t½ were calculated as secondary model parameters.
Table 1 reports the values for AUC, elimination t1/2, volume of distribution (V) and clearance (CL) reported by Osterode et al. compared to those obtained from the NCA analysis of the digitized data as described above.
The results of the one-compartment modeling of the data from Osterode et al. are reported in Table 2 and FIG. 7, where the present NCA results are also included for comparison. FIGS. 7A (log scale) and 7B (non-log scale) show a model for a 50 μg IV bolus and FIGS. 7C (log scale) and 7D (non-log scale) show a model for a 50 μg SQ bolus. Both the NCA and compartmental analysis estimate the bioavailability to be approximately 20%. It is notable that the estimates for ka from the SQ bolus data are nearly identical for the NCA and compartmental analysis (0.039 min^−1), while the compartmental analysis estimate for ke is 2.6-times greater than the NCA estimate (0.26 vs. 0.099 min^−1).

The conditions of data set [3]: in vivo, iv, 50 ug; cited from earlier work.
For data set [4] the following is noted: in vivo, cited from earlier work.
Details of data set [5]: species or system humans. Particulars: in vivo. The protocol:
as §1
as §2, with “1. […]” for “1.”
Similarly, the one-compartmental model for SQ bolus injection can be modeled by Equations 4 and 5, where Aa is the amount of drug in the injection site (pmol), ka is the absorption rate constant (1/min), and F is the bioavailability as a unitless decimal. […] Clearance (CL) and t½ were calculated as secondary model parameters. […]

Read-outs that look alike come from different tables or passages of the source.

As to Somatropin, in data set [1], the “bioavailability (in words)” value is on record as “high bioavailability”.
With Entanercept, the “bioavailability (in words)” value in data set [1] is “high bioavailability”.
On to `CC[C@H](C)[C@@H]1NC(=O)[C@H](CCCNC(=N)N)NC(=O)[C@H](CC(=O)O)NC(=O)[C@H](CCSC)NC(=O)[C@H](CCCNC(=N)N)NC(=O)CNC(=O)CNC(=O)[C@H](Cc2ccccc2)NC(=O)[C@@H](NC(=O)[C@H](CO)NC(=O)[C@H](CO)NC(=O)[C@H](CCCNC(=N)N)NC(=O)[C@H](CCCNC(=N)N)NC(=O)[C@H](CC(C)C)NC(=O)[C@@H](N)CO)CSSC[C@@H](C(=O)N[C@@H](CC(N)=O)C(=O)N[C@@H](CO)C(=O)N[C@@H](Cc2ccccc2)C(=O)N[C@@H](CCCNC(=N)N)C(=O)N[C@@H](Cc2ccc(O)cc2)C(=O)O)NC(=O)CNC(=O)[C@H](CC(C)C)NC(=O)CNC(=O)[C@H](CO)NC(=O)[C@H](CCC(N)=O)NC(=O)[C@H](C)NC(=O)CNC1=O` [ANP, atrial natriuretic peptide], for which the AUC in data set [2] (human, 50 ug) is 344 pmol·min/L; in data set [3] it was 1793 pmol·min/L; in data set [4] (50 ug), 345 pmol·min/L; in data set [5] (human, iv, 50 ug) it was 1731 pmol·min/L. In addition, the bioavailability in data set [2] (human) was approximately 20%; in data set [2] (human, iv), approximately 20%. For the same compound, the “F (bioavailability)” value was 19.9% in data set [2] (human, iv) and 19.2% in data set [4] (human). This compound also displayed a V/F in data set [2] of 167 L. Also, the “compartmental analysis estimate for ke relative to NCA estimate” value in data set [2] is on record as 2.6 times. Further, the ke in data set [2] is 0.26 min⁻¹; in data set [5], 0.099 min⁻¹. Besides, the “ke/ka (elimination greater than absorption)” value in data set [2] is given as 6.6. Also, in data set [4] (50 ug), the “mean terminal half-life, SQ bolus compared to IV bolus” value is 3 fold.

Usually AUC stands for the area under the concentration-time curve, a measure of exposure. The bioavailability is the share of a dose that reaches the circulation, judged against a reference dose that is usually intravenous. A lower bioavailability goes with poor availability.
